These compounds were tested on T1, GCaMP5-expressing T. gondii. Conditions: 100 uM zaprinast stimulation; 10 min pretreatment; mean of two replicates; 0.23 h.
T1 construct: whole extracellular parasites expressing GCaMP5 Ca2+ sensor
Parameters: species or system GCaMP5-expressing Toxoplasma gondii, extracellular; GCaMP5 fluorescence (cytosolic Ca2+) after 100 uM zaprinast in compound-pretreated extracellular parasites, background-subtracted, relative to zaprinast alone
Protocol: GCaMP5-expressing parasites were suspended in Ringer's solution at 4 × 10^7 parasites/ml, and 50 μl of parasites were applied to each well of a 96-well plate (Costar, catalog no. 3631). […] Parasites were then treated with 100 μM zaprinast or 0.1% DMSO as a vehicle control and incubated at 37 °C with 5% CO2 for an additional 4 min before measuring fluorescence with excitation and emission wavelengths of 485 and 525 nm, respectively, on a SpectraMax M3 (Molecular Devices). Basal fluorescence, measured from untreated parasites, was subtracted from all values, and results were expressed as -fold change from parasites treated only with zaprinast. Z′ factors were determined from (i) parasites treated with zaprinast versus untreated parasites and (ii) parasites treated with a final concentration of 1 μM Cpd2 or a vehicle control followed by zaprinast, using the formula, Z′ = 1 − 3(σp + σn)/(|μp − μn|), where σp and σn indicate S.D. values of positive and negative controls, and μp and μn indicate the means of positive and negative controls, respectively. […] We predicted that the zaprinast response measured in GCaMP5-expressing parasites could form the basis for a phenotypic screen. Such a screen would benefit from the known importance of Ca^2+ signaling in parasite biology along with the reported success rate of cell-based phenotypic assays. We designed a screen wherein extracellular GCaMP5-expressing parasites were pretreated with compounds for 10 min before stimulation with zaprinast, and parasite fluorescence was measured 4 min later. We expected that compounds that interfered with the zaprinast response would reduce fluorescence. We calculated a Z′-factor for this screen to determine its dynamic range and suitability to high throughput screening. To do so, we compared zaprinast-treated parasites to untreated parasites or those pretreated with the PKG inhibitor Compound 2 (Cpd2) ([55]). […] We obtained the compound libraries published kinase inhibitor sets PKIS1 ([57]) and PKIS2 (unpublished), from GlaxoSmithKline and applied our phenotypic screen to the 823 ATP mimetics represented in these collections (Fig. 2B and supplemental Table S1). The compounds were screened at a single 10 μM dose with two biological replicates.

Row | Compound | fold change in fluorescence relative to zaprinast alone
1 | CC1=C(C(=O)Nc2cc3cn[nH]c3cc2F)C(c2ccc(C(F)(F)F)cc2)CC(=O)N1 (stereo not shown) [GSK429286A] | 1.046
2 | COc1cc2ncn(-c3cc(OCc4sccc4Cl)c(C(N)=O)s3)c2cc1OC [GSK448459A] | 1.439
3 | CC1=C(C(=O)Nc2ccc3[nH]nc(C)c3c2)C(c2ccc(C(F)(F)F)cc2)CC(=O)N1 (stereo not shown) [GSK466314A] | 1.189
4 | CC1=C(C(=O)Nc2cc(Cl)c3[nH]ncc3c2)C(c2ccc(C(F)(F)F)cc2)CC(=O)N1 (stereo not shown) [GSK466317A] | 1.01
5 | C[C@@H](Oc1cc(-n2cnc3cc(-c4ccncc4)ccc32)sc1C(N)=O)c1ccccc1Cl [GSK479719A] | 1.296
6 | C[C@@H](Oc1cc(-n2cnc3ccc(-c4ccncc4)cc32)sc1C(N)=O)c1ccccc1Cl [GSK483724A] | 1.04
7 | CCn1c(-c2nonc2N)nc2c(C#CC(C)(C)O)ncc(OCCCCN)c21 [GSK507274A] | 1.063
8 | Cc1[nH]nc2ccc(-c3cc(OC[C@@H](N)Cc4ccccc4)cnc3-c3ccoc3)cc12 [GSK507358A] | 0.7404
9 | COc1cc(C2=NC(c3ccc(Cl)cc3F)C(C(=O)Nc3ccc4[nH]ncc4c3)=C(C)N2)ccn1 (stereo not shown) [GSK534911A] | 1.41
10 | COc1ccc(C2=NC(c3ccc(Cl)cc3F)C(C(=O)Nc3ccc4[nH]ncc4c3)=C(C)N2)cn1 (stereo not shown) [GSK534913A] | 1.286
11 | CCn1c(-c2nonc2N)nc2c(C#CCN)ncc(OCCCN)c21 [GSK561866B] | 1.218
12 | C[C@@H](Oc1cc(-n2cnc3ccc(OCC4CCN(C)CC4)cc32)sc1C(N)=O)c1ccccc1Cl [GSK571989A] | 0.9822
13 | C[C@@H](Oc1cc(-n2cnc3ccc(OC4CCN(C)CC4)cc32)sc1C(N)=O)c1ccccc1Cl [GSK579289A] | 0.9541
14 | C[C@@H](Oc1cc(-n2cnc3cc(-c4cnn(C)c4)ccc32)sc1C(N)=O)c1ccccc1Cl [GSK580432A] | 1.313
15 | Cc1ccc(S(=O)(=O)Nc2ccc(Nc3nccc(Nc4cccc5[nH]ncc45)n3)cc2)cc1 [GSK581271A] | 0.8813
16 | COc1ccc(-c2ccncc2)cc1C(N)=O [GSK605714A] | 1.144
17 | CCn1c(-c2nonc2N)nc2c(C#CC(C)(C)O)ncc(OC[C@@H]3CCCN3)c21 [GSK614526A] | 1.198
18 | CCn1c(-c2nonc2N)nc2c(C#CC(C)(C)O)ncc(OC3CCNCC3)c21 [GSK619487A] | 1.184
19 | NC(=O)c1cc(-c2ccc(F)cc2)cc(-c2ccncc2)c1N [GSK620503A] | 1.057
20 | NC(=O)c1cc(-c2ccncc2)cc(-c2ccccc2)c1N [GSK625137A] | 1.053

Row | Compound | fold change in fluorescence relative to zaprinast alone
21 | CNC(=O)c1cc(-c2ccc(F)cc2)cc(-c2ccc(S(=O)(=O)N3CCCC3)cc2)c1N [GSK635416A] | 1.111
22 | C[C@@H](Oc1cc(-n2cnc3cc(-c4ccnc(N5CCN(C)CC5)c4)ccc32)sc1C(N)=O)c1ccccc1Cl [GSK641502A] | 1.062
23 | Nc1ncc(-c2cccnc2)c2scc(-c3ccc4c(c3)CCN4C(=O)Cc3ccccc3)c12 [GSK683281A] | 1.385
24 | COc1c(C(N)=O)cc(-c2ccc(Cl)cc2)cc1-c1ccc(S(N)(=O)=O)cc1 [GSK711701A] | 1.357
25 | CCn1cc(-c2ccnc3[nH]ccc23)c(-c2cccc(NC(=O)Nc3ccc(OCc4ccccc4)cc3)c2)n1 [GSK718429A] | 1.268
26 | O=S(=O)(c1ccc(-c2ccnc3[nH]ccc23)cc1)N1CCCC1 [GSK846226A] | 1.029
27 | CCn1c(-c2nonc2N)nc2c(C#CC(C)(C)O)nc(OCCN)cc21 [GSK902056A] | 1.153
28 | C[C@@H](Oc1cc(-n2cnc3cc(-c4ccnc(NCCS(C)(=O)=O)c4)ccc32)sc1C(N)=O)c1ccccc1Cl [GSK907232A] | 1.132
29 | CCn1c(-c2nonc2N)nc2c(C#CC(C)(C)O)nc(OC[C@@H](N)c3ccccc3)cc21 [GSK938890A] | 1.022
30 | CCn1c(-c2nonc2N)nc2c(C#CC(C)(C)O)nc(OC[C@H](N)c3ccccc3)cc21 [GSK943949A] | 1.114
31 | CCn1c(-c2nonc2N)nc2c(C#CC(C)(C)O)nc(OCCNC)cc21 [GSK949675A] | 1.152
32 | NS(=O)(=O)c1ccc(-c2cc3ccncc3cc2OCc2ccccc2)cc1 [GSK953913A] | 1.131
33 | Cc1ccc(NC(=O)Nc2cccc(C(F)(F)F)c2)cc1 [GSK955403A] | 0.9183
34 | Fc1cccc(COc2ccc(Nc3ncnc4sc(-c5ccco5)cc34)cc2Cl)c1 [GSK969786A] | 0.8987
35 | NCCNS(=O)(=O)c1ccc(-c2ccnc3[nH]ccc23)cc1 [GSK977617A] | 1.223
36 | CN(C)CCNS(=O)(=O)c1ccc(-c2ccnc3[nH]ccc23)cc1 [GSK977620A] | 1.218
37 | NS(=O)(=O)c1cccc(-c2cc3ccncc3cc2OCc2ccccc2)c1 [GSK980961A] | 0.9595
38 | Cc1cccc(Nc2nc(N[C@H]3CCCC[C@H]3N)ncc2C(N)=O)c1 [GSK986310C] | 1.388
39 | CS(=O)(=O)Nc1ccc(-c2ccnc3[nH]ccc23)cc1 [GSK993273A] | 1.181
40 | CCCN1CCC=C(c2ccc(Nc3nc(Nc4ccccc4C(N)=O)c4cc[nH]c4n3)c(C)c2)C1 [GSK994854A] | 1.737

Row | Compound | fold change in fluorescence relative to zaprinast alone
41 | CCn1c(-c2nonc2N)nc2c(C#CC(C)(C)O)nc(CN3CCCC3)cc21 [GSK1000163A] | 1.153
42 | CCn1c(-c2nonc2N)nc2c(C#CC(C)(C)O)nc(O[C@@H](CN)c3ccccc3)cc21 [GSK1007102B] | 1.188
43 | Cc1ccc(NC(=O)Nc2cc(C(C)(C)C)nn2-c2ccccc2)cc1 [GSK1014915A] | 0.9452
44 | NC(=O)c1sc(-n2cnc3ccccc32)cc1OCc1ccccc1Br [GSK1023156A] | 0.8843
45 | COC(=O)c1sc(-n2cnc3cc(OC)c(OC)cc32)cc1OCc1ccccc1C(F)(F)F [GSK1030058A] | 0.7743
46 | COc1cc2ncn(-c3cc(OCc4ccccc4C(F)(F)F)c(C(C)=O)s3)c2cc1OC [GSK1030059A] | 1.158
47 | CNC(=O)c1sc(-n2cnc3cc(OC)c(OC)cc32)cc1OCc1ccccc1C(F)(F)F [GSK1030061A] | 1.028
48 | COc1cc2ncn(-c3cc(OCc4ccccc4C(F)(F)F)c(C(=O)N(C)C)s3)c2cc1OC [GSK1030062A] | 0.999
49 | O=c1[nH]cc(-c2ccc(O)cc2)c2sc(-c3ccncc3)cc12 [GSK1033723A] | 1.385
50 | Nc1nccc(-c2ccc3c(N)n[nH]c3c2)n1 [GSK1034945A] | 1.107
51 | CCCN1CCCC(c2ccc(Nc3nc(Nc4cc(F)ccc4C(N)=O)c4cc[nH]c4n3)c(OC)c2)C1 (stereo not shown) [GSK1173862A] | 1.98
52 | COc1cc(N2CCN(C(C)C)CC2)ccc1Nc1nc(Nc2ccc(F)cc2C(N)=O)c2cc[nH]c2n1 [GSK1220512A] | 1.812
53 | COc1ccc(Nc2nccc(-c3ccc(NC(=O)c4cc5cc(F)ccc5[nH]4)cc3)n2)cc1 [GSK1229496A] | 1.727
54 | NCC(NC(=O)c1cc(-c2ccnc3[nH]ccc23)cs1)c1ccccc1 (stereo not shown) [GSK1229959A] | 0.7412
55 | NCC(C(=O)Nc1cc(Br)c(-c2ccnc3[nH]ccc23)s1)c1ccccc1 (stereo not shown) [GSK1269851A] | 0.2436
56 | NCCCC(NC(=O)c1cc(Br)c(-c2ccnc3[nH]ccc23)s1)c1ccccc1 (stereo not shown) [GSK1287544A] | 0.7469
57 | Cc1cccc(Nc2nc(NCCN)ncc2C(N)=O)c1 [GSK1292139B] | 0.903
58 | NCCC(NC(=O)c1cc(Br)c(-c2ccnc3[nH]ccc23)s1)c1ccccc1 (stereo not shown) [GSK1307810A] | 0.5195

Reference: publication PMC4850295, “Using a Genetically Encoded Sensor to Identify Inhibitors of Toxoplasma gondii Ca^2+ Signaling” (The Journal of Biological Chemistry, 2016)
